Experimental data reported in patent CN117567270A, “一种醇胺-壬二酸超分子离子盐及其制备和应用” (Jiangnan University, priority 2023, dated 2024).

Tests used:
[1] = background statement; cited from earlier work
[2] = tested on: Escherichia coli [大肠埃希氏菌]; experiment: Antibacterial challenge test (single inoculation, 28 d), Escherichia coli; assay type: cell-based; conditions: for increase of bacterial count: 14~28 d; for sterilising effect (compared with control group): 7 d, control group: azelaic acid neutralised to pH 7.0
[3] = tested on: Escherichia coli, Pseudomonas aeruginosa and Staphylococcus aureus [大肠埃希氏菌、铜绿假单胞菌和金黄色葡萄球菌]; experiment: Antibacterial challenge test, overall result; assay type: cell-based; conditions: for antibacterial challenge test passed: criterion: log decline at 14 d not less than 2.0 and no rise 14~28 d
[4] = tested on: Staphylococcus aureus [金黄色葡萄球菌]; experiment: Antibacterial challenge test (single inoculation, 28 d), Staphylococcus aureus; assay type: cell-based; conditions: 14~28 d
[5] = tested on: Pseudomonas aeruginosa [铜绿假单胞菌]; experiment: Antibacterial challenge test (single inoculation, 28 d), Pseudomonas aeruginosa; assay type: cell-based; conditions: for increase of bacterial count: 14~28 d; for sterilising effect (compared with control group): 7 d, control group: azelaic acid neutralised to pH 7.0
[6] = tested on: human skin stratum corneum [人体皮肤角质层]; experiment: Moisturising performance test (skin water content by capacitance method); assay type: in vivo; conditions: toner with azelaic acid mass fraction 0.2%; for water content of human skin: 1 h after application; for moisturising ability (compared with control group): long time; for water loss of skin (compared with control group): longer time; for water replenishing ability (compared with control group): short time
[7] = High/low temperature cycling of the salt and its water dilutions; assay type: physicochemical; conditions: 15 cycles -5~40℃; undiluted and diluted 1, 5, 10, 20, 50 times with water
[8] = Storage stability of the salt and its water dilutions; assay type: physicochemical; conditions: 3 months, undiluted and diluted 1, 5, 10, 20, 50 times with water

Row | SMILES | solubility in water [1] | increase of bacterial count [2] | antibacterial challenge test passed [3] | increase of bacterial count [4] | increase of bacterial count [5] | water content of human skin [6] | sterilising effect (compared with control group) [2] | short-term antibacterial effect compared with azelaic acid [3] | sterilising effect (compared with control group) [5] | moisturising ability (compared with control group) [6] | water loss of skin (compared with control group) [6] | water replenishing ability (compared with control group) [6] | precipitation of insolubles and colour change [7] | precipitation of insolubles and colour change ([8]; 45℃ oven) | precipitation of insolubles and colour change ([8]; room temperature, natural light)
1 | O=C(O)CCCCCCCC(=O)O [壬二酸, reference compound] | 很低 | 不增加 | 通过抗菌挑战测试 | 不增加 | 不增加 | 明显上升 |  |  |  |  |  |  |  |  | 
2 | O=C(O)CCCCCCCC(=O)O.OCCN(CCO)CCO.OCCN(CCO)CCO [实施例1, 三乙醇胺-壬二酸超分子离子盐] |  | 不增加 |  | 不增加 | 不增加 | 明显上升 | 更加优异 | 优于壬二酸 | 更加优异 | 更加优异 | 较为缓慢 | 更加优异 |  |  | 
3 | NCC(O)CO.NCC(O)CO.O=C(O)CCCCCCCC(=O)O [实施例2, 氨基丙二醇-壬二酸超分子离子盐] |  | 不增加 | 通过抗菌挑战测试 | 不增加 | 不增加 | 明显上升 | 更加优异 | 优于壬二酸 | 更加优异 | 更加优异 | 较为缓慢 | 更加优异 | 无不溶物析出且无颜色变化 | 无不溶物析出且无颜色变化 | 无不溶物析出且无颜色变化
4 | CC(C)(N)CO.O=C(O)CCCCCCCC(=O)O [实施例3, 氨甲基丙醇-壬二酸超分子离子盐] |  | 不增加 | 通过抗菌挑战测试 | 不增加 | 不增加 | 明显上升 | 更加优异 | 优于壬二酸 | 更加优异 | 更加优异 | 较为缓慢 | 更加优异 |  |  | 
